Key:
[1] = Half life in dog at 1 mg/kg, iv by LC-MS/MS analysis; format: ADME, organism-based, Canis lupus familiaris; conditions: in vivo
[2] = AUCinfinity in dog at 1 mg/kg, iv by LC-MS/MS analysis; format: ADME, organism-based, Canis lupus familiaris; conditions: in vivo
[3] = Oral bioavailability in dog at 1 mg/kg by LC-MS/MS analysis; format: ADME, organism-based, Canis lupus familiaris; conditions: in vivo
[4] = Volume of distribution at steady state in dog at 1 mg/kg, iv by LC-MS/MS analysis; format: ADME, organism-based, Canis lupus familiaris; conditions: in vivo, read-out: Vdss
[5] = Volume of distribution at steady state in cynomolgus monkey at 1 mg/kg, iv by LC-MS/MS analysis; format: ADME, organism-based, Macaca fascicularis; conditions: in vivo, read-out: Vdss
[6] = Tmax in dog at 1 mg/kg, po by LC-MS/MS analysis; format: ADME, organism-based, Canis lupus familiaris; conditions: in vivo
[7] = Oral bioavailability in rat at 1 mg/kg by LC-MS/MS analysis; format: ADME, organism-based; conditions: in vivo
[8] = Metabolic stability in human hepatocytes assessed as intrinsic clearance; format: ADME, cell-based, Hepatocyte; conditions: read-out: CLH
[9] = Half life in rat at 1 mg/kg, iv by LC-MS/MS analysis; format: ADME, organism-based; conditions: in vivo
[10] = Half life in cynomolgus monkey at 1 mg/kg, iv by LC-MS/MS analysis; format: ADME, organism-based, Macaca fascicularis; conditions: in vivo
[11] = Metabolic stability in human liver microsomes assessed as intrinsic clearance; format: ADME, Microsome; conditions: read-out: CLH
[12] = Tmax in mouse at 1 mg/kg, po by LC-MS/MS analysis; format: ADME, organism-based; conditions: in vivo
[13] = Clearance in cynomolgus monkey at 1 mg/kg, iv by LC-MS/MS analysis; format: ADME, organism-based, Macaca fascicularis; conditions: in vivo
[14] = Free drug level in male C57BL/6 mouse plasma at 10 mg/kg, po qd measured on 3 to 7 days; format: ADME, organism-based; conditions: in vivo, time 3-7 day
[15] = Tmax in cynomolgus monkey at 1 mg/kg, po by LC-MS/MS analysis; format: ADME, organism-based, Macaca fascicularis; conditions: in vivo
[16] = AUCinfinity in rat at 1 mg/kg, iv by LC-MS/MS analysis; format: ADME, organism-based; conditions: in vivo
[17] = target: T1, Dual specificity mitogen-activated protein kinase kinase 5 (Homo sapiens) (UniProt Q13163); test: Binding affinity to MEK5 (unknown origin) at 100 to 1000 nM relative to control; conditions: dose 100-1000 nM
T1 sequence (whole entry): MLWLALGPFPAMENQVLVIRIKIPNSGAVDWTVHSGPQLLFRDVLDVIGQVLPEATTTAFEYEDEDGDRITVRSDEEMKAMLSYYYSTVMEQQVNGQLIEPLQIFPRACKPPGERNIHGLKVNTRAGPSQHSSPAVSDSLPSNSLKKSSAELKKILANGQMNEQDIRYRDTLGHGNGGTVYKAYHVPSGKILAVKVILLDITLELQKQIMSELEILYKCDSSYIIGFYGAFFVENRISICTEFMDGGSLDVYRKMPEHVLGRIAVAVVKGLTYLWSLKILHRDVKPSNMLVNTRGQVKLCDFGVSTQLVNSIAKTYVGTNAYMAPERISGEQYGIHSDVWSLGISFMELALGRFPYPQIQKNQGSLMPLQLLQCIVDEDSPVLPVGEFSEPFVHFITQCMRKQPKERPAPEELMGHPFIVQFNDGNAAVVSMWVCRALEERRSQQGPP

[18] = Half life in mouse at 1 mg/kg, iv by LC-MS/MS analysis; format: ADME, organism-based; conditions: in vivo
[19] = Tmax in rat at 1 mg/kg, po by LC-MS/MS analysis; format: ADME, organism-based; conditions: in vivo
[20] = test system: Mus musculus; test: Inhibition of LPS-induced TNF-alpha production in po dosed female C57BL/6 mouse assessed as reduction in TNF-alpha level in plasma administered via oral gavage for 60 mins followed by LPS stimulation at 0.5 mg/kg, ip measured after 90 mins by ELISA; format: functional, organism-based
[21] = Unbound clearance in rat at 1 mg/kg, iv by LC-MS/MS analysis; format: ADME, organism-based; conditions: in vivo
[22] = Unbound clearance in dog at 1 mg/kg, iv by LC-MS/MS analysis; format: ADME, organism-based, Canis lupus familiaris; conditions: in vivo
[23] = AUCinfinity in cynomolgus monkey at 1 mg/kg, iv by LC-MS/MS analysis; format: ADME, organism-based, Macaca fascicularis; conditions: in vivo
[24] = Oral bioavailability in mouse at 1 mg/kg by LC-MS/MS analysis; format: ADME, organism-based; conditions: in vivo
[25] = test system: Mus musculus; test: Inhibition of LPS-induced IL-6 production in po dosed female C57BL/6 mouse assessed as reduction in IL-6 level in plasma administered via oral gavage for 60 mins followed by LPS stimulation at 0.5 mg/kg, ip measured after 90 mins by ELISA; format: functional, organism-based
[26] = Clearance in mouse at 1 mg/kg, iv by LC-MS/MS analysis; format: ADME, organism-based; conditions: in vivo
[27] = Inhibition of […] induced IL-1beta production in human whole blood preincubated for 1 hr followed by R848 stimulation and measured after 4 hrs by MSD assay; format: functional, tissue-based
[28] = Volume of distribution at steady state in rat at 1 mg/kg, iv by LC-MS/MS analysis; format: ADME, organism-based; conditions: in vivo, read-out: Vdss
[29] = Volume of distribution at steady state in mouse at 1 mg/kg, iv by LC-MS/MS analysis; format: ADME, organism-based; conditions: in vivo, read-out: Vdss
[30] = Clearance in rat at 1 mg/kg, iv by LC-MS/MS analysis; format: ADME, organism-based; conditions: in vivo
[31] = Unbound clearance in mouse at 1 mg/kg, iv by LC-MS/MS analysis; format: ADME, organism-based; conditions: in vivo
[32] = AUCinfinity in mouse at 1 mg/kg, iv by LC-MS/MS analysis; format: ADME, organism-based; conditions: in vivo
[33] = Lipophilicity, logD of compound in n-octanol and aqueous buffer at pH 7.4 by RP-HPLC method; format: physicochemical
[34] = test system: Mus musculus; test: Inhibition of LPS-induced IL-1beta production in po dosed female C57BL/6 mouse assessed as reduction in IL-1beta level in plasma administered via oral gavage for 60 mins followed by LPS stimulation at 0.5 mg/kg, ip measured after 90 mins by ELISA; format: functional, organism-based
[35] = Clearance in dog at 1 mg/kg, iv by LC-MS/MS analysis; format: ADME, organism-based, Canis lupus familiaris; conditions: in vivo
[36] = Oral bioavailability in cynomolgus monkey at 1 mg/kg by LC-MS/MS analysis; format: ADME, organism-based, Macaca fascicularis; conditions: in vivo
[37] = Unbound clearance in cynomolgus monkey at 1 mg/kg, iv by LC-MS/MS analysis; format: ADME, organism-based, Macaca fascicularis; conditions: in vivo

Structure (SMILES): Cc1cnc2c(NC(=O)c3cn4cc(C56COC(C)(C5)C6)nc4nc3OC(C)C)cnn2c1
- half-life [1]: 600 min
- AUC(0-inf) [2]: 3190 ng·h/mL
- bioavailability [3]: 96%
- Vd [4]: 2.8 L/kg
- Vd [5]: 1.7 L/kg
- Tmax [6]: 2.6 h
- bioavailability [7]: 91%
- CLint scaled [8]: 2.5 mL/min/kg
- half-life [9]: 720 min
- half-life [10]: 498 min
- CLint scaled [11]: < 5 mL/min/kg
- Tmax [12]: 1 h
- clearance [13]: 2.7 mL/min/kg
- Cp(f) [14]: 10 nM
- Tmax [15]: 2 h
- AUC(0-inf) [16]: 6530 ng·h/mL
- Activity [17]: > 80%
- half-life [18]: 300 min
- Tmax [19]: 4.7 h
- inhibition [20]: Dose-Dependent Effect
- CL free [21]: 30 mL/min/kg
- CL free [22]: 5.3 mL/min/kg
- AUC(0-inf) [23]: 6440 ng·h/mL
- bioavailability [24]: 98%
- inhibition [25]: Dose-Dependent Effect
- clearance [26]: 1.8 mL/min/kg
- IC50 ([27]; Homo sapiens, Blood): 200 nM
- fIC50 ([27]; time 5 hrs): 13 nM
- Vd [28]: 2.2 L/kg
- Vd [29]: 0.75 L/kg
- clearance [30]: 2.1 mL/min/kg
- CL free [31]: 19 mL/min/kg
- AUC(0-inf) [32]: 9460 ng·h/mL
- logD [33]: 2.9
- inhibition [34]: Dose-Dependent Effect
- clearance [35]: 3.5 mL/min/kg
- bioavailability [36]: 95%
- CL free [37]: 14 mL/min/kg
